Paper PMC4492822 (EMBO Molecular Medicine, 2015)

What was measured:
[1] = test system: A549; experiment: Annexin V / PI flow cytometry, 72 h; assay type: cell-based, human
Protocol: Histograms depicting early apoptosis (Annexin V positive) and late apoptosis (PI positive) in cells treated with the indicated amounts of RK-33. Cells were either treated with DMSO (controls) or IC50 and IC75 amounts of RK-33. After 72 hours incubation, cells were harvested and stained for Annexin V and PI and analyzed by flow cytometry.

[2] = test system: Twist1/Kras^G12D lung tumors; experiment: Twist1/KrasG12D autochthonous lung tumor model, hypofractionated radiation (SABR); assay type: in vivo, mouse
Protocol: Inducible Twist1/Kras^G12D transgenic mice in the FVB/N inbred background were of the genotype: CCSP-rtTA/tetO-KrasG12D/Twist1-tetO-luc (Tran et al, [2012]). All the mice were weaned 3–4 weeks of age and then placed on dox at 4–6 weeks of age. Mice were treated with similar levels of tumor burden per micro-CT and were typically 20–30 weeks old. Mice were treated as in Fig6C and H. Each group consisted of mice, of which multiple index tumors were followed in time by micro-CT and quantified by a board-certified radiation oncologist (JZ) in a blinded fashion. Bi-dimensional measurements were made on tumors using serial examinations and tumor volumes calculated using the equation Volume = π/6 × 1.65 (length × width) × 3/2. Volumes were normalized to the starting volume, t = 0 before treatment. For 15-Gy SABR experiments, the breakdown of animal usage is (1) RT = 3 female mice, (2) RK-33 = 3 females and 1 male mice, (3) carboplatin = 3 male mice, (4) RT + carboplatin = 3 female mice, and (5) RT + RK-33 = 5 female mice. For the 3-Gy XRT experiments, animals used were (1) RT = 3 female and three male mice and (2) RT + RK-33 = four female and three male mice.
Cells were irradiated at room temperature with 0.5 Gy/min to the desired dose using a Gammacell 40 ^137Cs irradiator. For in vivo experiments, mice were treated using the Small Animal Radiation Research Platform (Wong et al, [2008]). The tumors were irradiated with a circular beam of 1 cm diameter.
The mice underwent micro-CT imaging by use of the Small Animal Radiation Research Platform (SARRP) irradiator described earlier (Wong et al, [2008]). The uncollimated primary beam was used for imaging. A total of 1,800 projections were acquired at approximately 0.2 angular increments. The Feldkamp CBCT algorithm was used for reconstruction. Tumor volumes were quantified from the CT dataset with Pinnacle3 software v.8.1y (Philips Inc, Madison, WI) as described previously (Tran et al, [2011]; Zeng et al, [2013]). Briefly, we viewed 2D images in sagittal, coronal, and transverse views to detect tumors and track them over time. […]

[3] = test system: H3255; experiment: MTS viability assay, 72 h, line with low DDX3 expression; assay type: cell-based
Protocol: Proliferation was determined by counting cancer cells over time. Cells were seeded at 7.5 × 10^4 cells/well and counted daily with a TC10 automated cell counter (Bio-Rad, Hercules, CA, USA) at least three times. Viability of cancer cells was determined by MTS assay (CellTiter 96® AQueous One Solution, Promega, Madison, WI, USA) as described by the manufacturer. Briefly, 800–2,000 cells were allowed to attach overnight in a 96-well plate, treated with different concentrations of RK-33 and kept for 72 h. MTS reagent was kept for 2 h. Each experiment was repeated a minimum of three independent times.

## diimidazo[4,5-d:4′,5′-f]-[1,3]diazepine [RK-33]
[1]; 9 uM, first (upper) value of panel
  cells in gate of Annexin V/PI plot: 81.7
[1]; 9 uM, second value of panel
  cells in gate of Annexin V/PI plot: 4.44
[1]; 9 uM, third (lowest) value of panel
  cells in gate of Annexin V/PI plot: 4.73
[1]; 10.5 uM, first (upper) value of panel
  cells in gate of Annexin V/PI plot: 85.3
[1]; 10.5 uM, second value of panel
  cells in gate of Annexin V/PI plot: 5.99
[1]; 10.5 uM, third (lowest) value of panel
  cells in gate of Annexin V/PI plot: 2.26
[2]; RK-33 and radiation treatment
  Ki67 positive cells in lung tumors: decrease in Ki67 positive cells
[2]; i.p. RK-33 with 15-Gy SABR, 1 week after treatment
  enhancement of the radiation effect (tumor volume by micro-CT): 3.7 fold
[2]; with SABR
  radiation sensitization relative to that caused by carboplatin: 1.5 fold
[3]
  IC50: > 25 µM
